Data: patent US11524940B1, “Inhibitors of cysteine proteases and methods of use thereof” (priority 2020, dated 2022)

biological target: 229E Mpro (Human coronavirus 229E (HCoV-229E), UniProt P0C6X1); test: 229E Mpro activity; type: biochemical; settings: 229E Mpro EC50
Sequence (P0C6X1 2966-3267 limits assumed): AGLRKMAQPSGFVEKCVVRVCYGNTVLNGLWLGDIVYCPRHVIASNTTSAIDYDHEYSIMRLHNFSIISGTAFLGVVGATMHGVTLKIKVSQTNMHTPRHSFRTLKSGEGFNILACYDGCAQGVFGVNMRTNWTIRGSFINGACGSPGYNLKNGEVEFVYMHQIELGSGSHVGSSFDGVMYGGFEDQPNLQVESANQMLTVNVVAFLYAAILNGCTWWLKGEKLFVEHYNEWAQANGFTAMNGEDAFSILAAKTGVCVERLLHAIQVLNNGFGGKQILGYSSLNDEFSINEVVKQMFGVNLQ
Experimental: Compounds are assayed using standard methods to assess compound activity and IC50. […] The assay buffer contains 20 mM of Tris-HCl (pH 7.3), 100 mM of NaCl, 1 mM of EDTA, 5mM of TCEP and 0.1% BSA.

SMILES	EC50 [nM]
CC1(C)CCC(C[C@@H](C#N)NC(=O)[C@H](CC2CC2)NC(=O)c2cc3cccc(Cl)c3[nH]2)C(=O)N1 (single isomer, unassigned) [Compound 749 (Isomer 1)]	2000 to 10000

same assay, conditions: read-out: 229E Mpro EC50

SMILES	EC50 [nM]
COc1cccc2[nH]c(C(=O)N[C@@H](CC(C)C)C(=O)N[C@@H](C[C@@H]3CCNC3=O)C(C#N)NC(C)(C)C)cc12 (single isomer, unassigned) [323 (Isomer 1)]	< 2000
COc1ccc2[nH]c(C(=O)N3CC4(CCCCC4)CC3C(=O)N[C@H](C#N)C[C@@H]3CCNC3=O)cc2c1Cl (single isomer, unassigned) [880 (Isomer 1)]	10000 to 30000
COc1cccc2[nH]c(C(=O)N3CC(C45CC(C4)C5)C[C@H]3C(=O)N[C@H](C#N)C[C@@H]3CCNC3=O)cc12 (single isomer, unassigned) [385 (Isomer 2)]	< 2000
COc1cccc2[nH]c(C(=O)N[C@@H](CC3CC3)C(=O)N[C@H](C#N)C[C@H]3C(=O)Nc4ccccc43)cc12 [Compound 932]	< 2000
COc1cccc2[nH]c(C(=O)N[C@@H](CC(C)C)C(=O)N[C@@H](C[C@@H]3CCNC3=O)C(C#N)NCC(=O)O)cc12 (single isomer, unassigned) [653 (Isomer 2)]	< 2000
COc1cc(Cl)cc2[nH]c(C(=O)N[C@@H](CC3CC3)C(=O)N[C@H](C#N)C[C@@H]3CCCNC3=O)cc12 [Compound 906, 6-chloro-N-[(1S)-2-[[(1S)-1-cyano-2-[(3S)-2-oxo-3-piperidyl]ethyl]amino]-1-(cyclopropylmethyl)-2-oxo-ethyl]-4-methoxy-1H-indole-2-carboxamide]	< 2000
N#C[C@H](C[C@@H]1CCCNC1=O)NC(=O)[C@H](CC1CC1)NC(=O)c1cc2c(F)ccc(Cl)c2[nH]1 [Compound 832, 7-chloro-N-[(1S)-2-[[(1S)-1-cyano-2-[(3S)-2-oxo-3-piperidyl]ethyl]amino]-1-(cyclopropylmethyl)-2-oxo-ethyl]-4-fluoro-1H-indole-2-carboxamide]	< 2000
Cc1cc(C(=O)N[C@H]2CC[C@@H]3SC[C@@H](C(=O)N[C@H](C#N)C[C@@H]4CCNC4=O)N3C2=O)no1 [Compound 459, N-((3R,6S,8aS)-3-(((S)-1-cyano-2-((S)-2-oxopyrrolidin-3-yl)ethyl)carbamoyl)-5-oxohexahydro-2H-thiazolo[3,2-a]pyridin-6-yl)-5-methylisoxazole-3-carboxamide]	> 30000
COc1cccc2[nH]c(C(=O)N[C@@H](CC(C)C)C(=O)NC(C#N)Cc3cc(=O)[nH]c4ccccc34)cc12 (mixture of isomers) [Compound 237, N-[(1S)-1-[[1-cyano-2-(2-oxo-1H-quinolin-4-yl)ethyl]carbamoyl]-3-methyl-butyl]-4-methoxy-1H-indole-2-carboxamide]	> 30000
N#C[C@H](C[C@@H]1CCNC1=O)NC(=O)[C@@H](CC1CC1)N1CCc2cc[nH]c2C1=O [Compound 267A, (2R)-N-[(1S)-1-cyano-2-[(3S)-2-oxopyrrolidin-3-yl]ethyl]-3-cyclopropyl-2-(7-oxo-4,5-dihydro-1H-pyrrolo[2,3-c]pyridin-6-yl)propanamide]	> 30000
COCCOCCOc1cccc2[nH]c(C(=O)N[C@@H](CC(C)(C)C)C(=O)N[C@H](C#N)C[C@@H]3CCCNC3=O)cc12 [Compound 876, N-[1-[[1-cyano-2-[(3S)-2-oxo-3-piperidyl]ethyl]carbamoyl]-3,3-dimethyl-butyl]-4-[2-(2-methoxyethoxy)ethoxy]-1H-indole-2-carboxamide]	< 2000
N#C[C@H](C[C@@H]1CCNC1=O)NC(=O)[C@@H](CC1CC1)n1cccc(NCC(F)(F)F)c1=O (single isomer, unassigned) [467 (Isomer 2)]	> 30000
Cc1ccn(C(CC2CC2)C(=O)N[C@H](C#N)C[C@@H]2CCNC2=O)c(=O)c1NC(=O)OC(C)(C)C (single isomer, unassigned) [591 (Isomer 2)]	> 30000
CN1CCCC[C@@]12CCN([C@H](CC1CC1)C(=O)N[C@H](C#N)C[C@@H]1CCNC1=O)C2=O [Compound 273B, (2R)-N-[(1S)-1-cyano-2-[(3S)-2-oxopyrrolidin-3-yl]ethyl]-3-cyclopropyl-2-[(5S)-6-methyl-1-oxo-2,6-diazaspiro[4.5]decan-2-yl]propanamide]	> 30000
COc1cccc2[nH]c(C(=O)N3C[C@H]4CCC[C@H]4[C@H]3C(=O)N[C@H](C#N)C[C@@H]3CCNC3=O)cc12 [Compound 305]	< 2000
N#C[C@H](C[C@@H]1CCNC1=O)NC(=O)C1CC2(CCCCC2)CN1C(=O)c1cc2ccc(Cl)cc2[nH]1 (single isomer, unassigned) [878 (Isomer 1)]	< 2000
COc1cccc2[nH]c(C(=O)N[C@@H](CC(C)C)C(=O)N[C@@H](C[C@@H]3CCNC3=O)C3OC(=O)N(C(C)C)C3=N)cc12 (stereo partly drawn) [Compound 357, N-((2S)-1-(((1S)-1-(4-imino-3-isopropyl-2-oxooxazolidin-5-yl)-2-((S)-2-oxopyrrolidin-3-yl)ethyl)amino)-4-methyl-1-oxopentan-2-yl)-4-methoxy-1H-indole-2-carboxamide]	> 30000
CC1(C)CCC(C[C@@H](C#N)NC(=O)[C@H](CC2CC2)NC(=O)c2cc3cccc(Cl)c3[nH]2)C(=O)N1 (single isomer, unassigned) [Compound 749 (Isomer 2)]	2000 to 10000
CC(C)C[C@H](NC(=O)CC(C)(O)c1ccc(Cl)cc1)C(=O)N[C@H](C#N)C[C@@H]1CCNC1=O (single isomer, unassigned) [365 (Isomer 1)]	2000 to 10000
N#C[C@H](C[C@@H]1CCCNC1=O)NC(=O)[C@H](CC1CC1)NC(=O)c1cc2cc(F)cc(Br)c2[nH]1 [Compound 852, 7-bromo-N-((S)-1-(((S)-1-cyano-2-((S)-2-oxopiperidin-3-yl)ethyl)amino)-3-cyclopropyl-1-oxopropan-2-yl)-5-fluoro-1H-indole-2-carboxamide]	< 2000
N#C[C@H](C[C@@H]1CCNC1=O)NC(=O)[C@H](CC1CC1)NC(=O)c1cc2c(Cl)ccc(Cl)c2[nH]1 [Compound 691, 4,7-dichloro-N-[(1S)-2-[[(1S)-1-cyano-2-[(3S)-2-oxopyrrolidin-3-yl]ethyl]amino]-1-(cyclopropylmethyl)-2-oxo-ethyl]-1H-indole-2-carboxamide]	< 2000
COc1cccc2[nH]c(C(=O)N[C@@H](Cc3cccc(Cl)c3)C(=O)N[C@H](C#N)C[C@@H]3CCNC3=O)cc12 [Compound 153]	10000 to 30000
N#C[C@H](C[C@@H]1CCCNC1=O)NC(=O)[C@H](CC1CC1)NC(=O)c1ncc(Cl)[nH]1 [Compound 868]	< 2000
N#C[C@H](C[C@@H]1CCNC1=O)NC(=O)C1CC2(CCCCC2)CN1C(=O)c1cc2ccc(Cl)c(Cl)c2[nH]1 (single isomer, unassigned) [986 (Isomer 2)]	> 30000
COc1ccc(Cl)c2[nH]c(C(=O)N[C@@H](CC(C)(C)C)C(=O)N[C@H](C#N)C[C@@H]3CCNC3=O)cc12 [Compound 892]	< 2000
COc1cc(Cl)c2[nH]c(C(=O)N[C@@H](CC(C)(C)C)C(=O)N[C@H](C#N)C[C@@H]3CCCNC3=O)cc2c1 [Compound 810, 7-chloro-N-[(1S)-1-[[(1S)-1-cyano-2-[(3S)-2-oxo-3-piperidyl]ethyl]carbamoyl]-3,3-dimethyl-butyl]-5-methoxy-1H-indole-2-carboxamide]	< 2000
